pEC50: −log10 of the molar value.
Assays:
[1] = target: T1, APOL1 G2 (Homo sapiens, UniProt O14791, DEL388-389); experiment: APOL1 calcium transport inhibition assay (GCaMP6f calcium influx, FLIPR) in HEK T-REx/GCaMP6f/APOL1 G2 K6.3 cells; type: cell-based; settings: inhibition of APOL1-mediated calcium influx; geometric mean of at least 2 assay runs, † = single assay run (technical duplicate)
T1 construct: expressed in transfected cells; host or cells: HEK293 T-REx clonal lines: HEK T-REx/GCaMP6f/APOL1 G2 K6.3 in A1, HEK293/T-REx APOL1 G2/clone #2 in A2
T1 sequence (O14791 with tags, fused parts or gaps DEL388-389): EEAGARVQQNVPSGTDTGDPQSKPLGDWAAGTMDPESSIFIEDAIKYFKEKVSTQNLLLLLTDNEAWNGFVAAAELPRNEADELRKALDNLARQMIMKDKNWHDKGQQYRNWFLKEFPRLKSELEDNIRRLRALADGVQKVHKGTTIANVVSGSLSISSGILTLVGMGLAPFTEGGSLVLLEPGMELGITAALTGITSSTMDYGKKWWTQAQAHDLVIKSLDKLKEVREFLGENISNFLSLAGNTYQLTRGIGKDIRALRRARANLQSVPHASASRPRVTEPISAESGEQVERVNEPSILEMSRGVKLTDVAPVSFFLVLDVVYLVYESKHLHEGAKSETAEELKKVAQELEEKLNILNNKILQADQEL
Summary of the method: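 HEK293 cells stably expressing GCaMP6f, APOL1 G2 induced 6 h with doxycycline (20 ng/mL added), then washed into Ca2+-free Tyrode's buffer pH 7.4. Compounds (8-point dose response) preincubated 10 min at room temperature, then Ca2+ injected to 5 mM final and influx read on FLIPR. AC50 reported as geometric mean of runs.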

[2] = target: T1, APOL1 G2; experiment: Rescue of HEK293 cell death caused by overexpression of APOL1 (CellTiter-Glo luminescence), HEK293/T-REx APOL1 G2/clone #2; type: cell-based; settings: reversal of cell death caused by overexpression of APOL1; geometric mean of at least 2 assay runs, † = single assay run (technical duplicate)
Summary of the method: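 Rescue EC50s come from four-parameter logistic fits, geometric mean of at least 2 runs on separate days, each in duplicate. Readout: CellTiter-Glo luminescence after 17 h at 37 °C of 5,000 HEK293/T-REx APOL1 G2 clone #2 cells/well, with 6 ng/mL doxycycline to induce APOL1 and 3-fold serial compound dilutions in 0.5% DMSO.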

With `CN(c1ccc(OC[C@@H](O)CN2CCOC(c3cccc(Cl)c3)C2)cc1)S(C)(=O)=O` (stereo partly drawn) [Compound 80, N-(4-((2S)-3-(2-(3-chlorophenyl)morpho-lino)-2-hydroxypropoxy)phe-nyl)-N-methylmethanesulfon-amide] the AC50 [1] was 13900 nM and the pEC50 [2] was 4.89.
`CS(=O)(=O)c1ccc(OCC2CN(CCc3cccc(Cl)c3)CCC2O)cc1` (single isomer, unassigned) [Compound 31, (3R,4R) or (3S,4S) or (3R,4S) or (3S,4R)-1-(3-chlorophen-ethyl)-3-((4-(methylsulf-onyl)phenoxy)methyl) piperidin-4-ol] gave an AC50 [1] of 1020 nM and a pEC50 [2] of under 5.10.
For `C[C@@H]1CN(CCc2cccc(Cl)c2)C[C@@H]1COc1ccc(S(C)(=O)=O)cc1` (racemic) [Compound 150, rac-cis-1-[2-(3-chlorophenyl)-ethyl]-3-[(4-methanesulfon-ylphenoxy)meth-yl]-4-methyl-pyrrolidine], the AC50 [1] was 721 nM and the pEC50 [2] was 5.83.
With `CN(c1ccc(OC[C@@H](O)CN(CCc2cccc(Cl)c2)CC2CC2)cc1)S(C)(=O)=O` [Compound 59, (S)—N-(4-(3-((3-chlorophenethyl)(cyclopropylmethyl)amino)-2-hydroxypropoxy)phenyl)-N-methylmethanesulfonamide] the AC50 [1] was 245 nM and the pEC50 [2] was 5.97.
Work on `C[C@]1(O)CN(CCc2cccc(Cl)c2)C[C@H]1COc1ccc(S(C)(=O)=O)cc1` (single isomer, unassigned) [Compound 210, (3S,4R or 3R,4S)-1-[2-(3-chlorophenyl)ethyl]-4-[(4-methanesulfonylphenoxy)methyl]-3-methylpyrrolidin-3-ol] yielded an AC50 [1] of 898 nM and a pEC50 [2] of 5.51.
Compound `C[C@@H]1C[C@H](COc2ccc(S(C)(=O)=O)cc2)CN1CC(O)c1cc(C#N)cc(C#N)c1` (single isomer, unassigned) [Compound 119, 5-[(1S or 1R)-1-hydroxy-2-[(2R,4S)-4-[(4-methanesulfonylphenoxy)methyl]-2-methylpyrrolidin-1-yl]ethyl]benzene-1,3-dicarbonitrile] has an AC50 [1] of 784 nM and a pEC50 [2] of 6.88.
Compound `CS(=O)(=O)c1ccc(OC[C@H]2CN(CCc3cccc(Cl)c3)CCN2)cc1` [Compound 14, (R)-1-(3-chlorophenethyl)-3-((4-(methylsulfonyl)phenoxy)methyl)piperazine] has an AC50 [1] of 3340 nM and a pEC50 [2] of under 4.52.
In the case of `CN(c1ccc(OCC(C)(O)CNCCc2cccc(Cl)c2)cc1)S(C)(=O)=O` (single isomer, unassigned) [Compound 104, (S) or (R)-N-(4-(3-((3-chlorophenethyl)a-mino)-2-hydroxy-2-methylpropoxy)phe-nyl)-N-methylmethanesulfon-amide], the AC50 [1] was under 382 nM and the pEC50 [2] was 5.73.
Compound `CN(c1ccc(OC[C@@H](O)CN2CCC(c3cccc(Cl)c3)C2)cc1)S(C)(=O)=O` (stereo partly drawn) [Compound 74, N-(4-((2S)-3-(3-(3-chlorophenyl)pyrro-lidin-1-yl)-2-hydroxypropoxy)phe-nyl)-N-methylmethanesulfon-amide] has an AC50 [1] of 1290 nM and a pEC50 [2] of 5.59.
`CS(=O)(=O)c1ccc(OC[C@H]2CCCN(CCc3cccc(Cl)c3)C2)cc1` [Compound 16, (S)-1-(3-chlorophenethyl)-3-((4-(methylsulfonyl)phenoxy)methyl)piperidine] was tested, and the AC50 [1] was 231 nM and the pEC50 [2] was 6.48.
With `CN(c1ccc(OC[C@H](O)CN2CCC(c3cccc(Cl)c3)C2)cc1)S(C)(=O)=O` (single isomer, unassigned) [Compound 78, N-(4-((R)-3-((S) or (R)-3-(3-chlorophenyl)pyrro-lidin-1-yl)-2-hydroxypropoxy)phe-nyl)-N-methylmethanesulfon-amide] the AC50 [1] was 7010 nM and the pEC50 [2] was under 4.52.
Compound `C[C@H]1CC[C@H](COc2ccc(S(C)(=O)=O)cc2)CN1CCc1cccc(Cl)c1` [Compound 134, (25,5S)-1-[2-(3-chlorophenyl)ethyl]-5-[(4-methanesulfonylphenoxy)methyl]-2-methylpiperidine] has an AC50 [1] of 277 nM and a pEC50 [2] of 6.04.
`CS(=O)(=O)c1ccc(OCC2CCCCN(CCc3cccc(Cl)c3)C2)cc1` (stereo not shown) [Compound 1, 1-(3-chlorophenethyl)-3-((4-(methylsulfonyl)phenoxy)methyl)azepane] was tested, and the AC50 [1] was at most 253 nM and the pEC50 [2] was 6.28.
In the case of `C[C@@H]1CN(CC(O)c2cccc(Cl)c2)C[C@H]1COc1ccc(S(C)(=O)=O)cc1` (single isomer, unassigned) [Compound 124, (1R or 1S)-1-(3-chlorophenyl)-2-[(3S,4S)-3-[(4-methanesulfonylphenoxy)methyl]-4-methylpyrrolidin-1-yl]ethan-1-ol], the AC50 [1] was 148 nM and the pEC50 [2] was 6.62.
Work on `CN=S(C)(=O)c1ccc(OC[C@H]2C[C@@H](C)N(CCc3cccc(C#N)c3)C2)cc1` (single isomer, unassigned) [Compound 159, 3-{2-[(2R,4S)-2-methyl-4-({4-[(S or R)methyl(methyli-mino)oxo-λ^6-sulfanyl]phenoxy}methyl)pyrrolidin-1-yl]ethyl}benzonitrile] yielded an AC50 [1] of 358 nM and a pEC50 [2] of 7.60.
Compound `C[C@@H]1CN(CCc2cc(Br)cc(C#N)c2)C[C@H]1COc1ccc(S(C)(=O)=O)cc1` [Compound 196, 3-bromo-5-{2-[(3S,4S)-3-[(4-methanesulfonylphenoxy)methyl]-4-methylpyrrolidin-1-yl]ethyl}benzonitrile] has an AC50 [1] of 108 nM and a pEC50 [2] of 6.96.
`CC1CC(COc2ccc(S(C)(=O)=O)cc2)CN1CCc1cc(Cl)cc(C#N)c1` (single isomer, unassigned) [Compound 203, 3-chloro-5-(2-((2R,4S or 2S,4R or 2R,4R or 2S,4S)-2-methyl-4-((4-(methylsulfonyl)phenoxy)methyl)pyrrolidin-1-yl)ethyl)benzonitrile] gave an AC50 [1] of 9300 nM and a pEC50 [2] of 5.45.
Compound `CS(=O)(=O)c1ccc(OC[C@@H]2CCCN(CC(O)c3cccc(Cl)c3)C2)cc1` (stereo partly drawn) [Compound 20, 1-(3-chlorophenyl)-2-((R)-3-((4-(methylsulfonyl)phenoxy)methyl)piperidin-1-yl)ethanol] has an AC50 [1] of 1760 nM and a pEC50 [2] of 5.87.
`CN(c1ccc(OC[C@H]2CCN(CCc3cccc(Cl)c3)C2)cc1)S(C)(=O)=O` [Compound 49, (S)-N-(4-((1-(3-chlorophenethyl)pyrrolidin-3-yl)methoxy)phenyl)-N-methylmethanesulfonamide] showed an AC50 [1] of 847 nM and a pEC50 [2] of 6.02.
`CS(=O)(=O)c1ccc(OCC2CN(CCc3cccc(Cl)c3)CCC2O)cc1` (racemic) [Compound 28, rac-cis or trans-1-(3-chlorophenethyl)-3-((4-(methylsulfonyl)phenoxy)methyl)piperidin-4-ol] was tested, and the AC50 [1] was 2000 nM and the pEC50 [2] was 5.63.
`CC1CC(COc2ccc(S(C)(=O)=O)cc2)CN1CCc1cccc(C#N)c1` (single isomer, unassigned) [Compound 136, rac-trans or cis-3-{2-[4-[(4-methanesulfon-ylphenoxy)meth-yl]-2-methyl-pyrrolidin-1-yl]-ethyl}benzo-nitrile] showed an AC50 [1] of 207 nM and a pEC50 [2] of 6.96.
Work on `CC1CC(COc2ccc(S(C)(=O)=O)cc2)CN1CCc1cc(Cl)cc(C#N)c1` (single isomer, unassigned) [Compound 201, 3-chloro-5-(2-((2R,4S or 2S,4R or 2R,4R or 2S,4S)-2-methyl-4-((4-(methylsulfonyl)phenoxy)methyl)pyrrolidin-1-yl)ethyl)benzonitrile] yielded an AC50 [1] of 620 nM and a pEC50 [2] of 5.77.
`CS(=O)(=O)c1ccc(OCC2(O)CCCN(CCc3cccc(Cl)c3)C2)cc1` (single isomer, unassigned) [Compound 6, (S) or (R) -1-(3-chlorophenethyl)-3-((4-(methylsulfonyl)phenoxy)methyl) piperidin-3-ol] showed an AC50 [1] of 942 nM and a pEC50 [2] of 6.31.
`C[C@@H]1CN(CCc2cccc(S(F)(F)(F)(F)F)c2)C[C@H]1COc1ccc(S(C)(=O)=O)cc1` [Compound 163, (3S,4S)-3-[(4-methanesulfonylphenoxy)methyl]-4-methyl-1-{2-[3-(pentafluoro-λ^6-sulfanyl)phenyl]ethyl}pyrrolidine] gave an AC50 [1] of 1150 nM and a pEC50 [2] of under 6.41.
With `CC1CNC(COc2ccc(S(C)(=O)=O)cc2)CN1CCc1cccc(Cl)c1` (stereo not shown) [Compound 211, 1-[2-(3-chlorophenyl)ethyl]-5-[(4-methanesulfonylphenoxy)methyl]-2-methylpiperazine] the AC50 [1] was under 118 nM and the pEC50 [2] was 5.87.
`CN=S(C)(=O)c1ccc(OC[C@@H]2CN(CCc3cccc(C#N)c3)C[C@H]2C)cc1` (single isomer, unassigned) [Compound 171, 3-{2-[(3S,4S)-3-methyl-4-({4-[(S or R)-methyl(methylimi-no)oxo-λ^6-sulfanyl]phenoxy}methyl)pyrrolidin-1-yl]ethyl}benzonitrile] showed an AC50 [1] of 212 nM and a pEC50 [2] of 6.84.
